Experimental data as given in the Deep4Chem optical property database.
One block for each molecule: values may come before it.

Assay: solvent given as SMILES

Compound: CCN(CC)c1ccc2c(C#N)c(/C=C(\C#N)c3nc4ccccc4s3)c(=O)oc2c1
absorption maximum (in C1COCCO1): 561 nm
absorption maximum (in CC#N): 597 nm
absorption maximum (in CCO): 602 nm
absorption maximum (in CCOC(C)=O): 568 nm
absorption maximum (in CN(C)C=O): 525 nm
absorption maximum (in CO): 591 nm
absorption maximum (in CS(C)=O): 531 nm
absorption maximum (in Cc1ccccc1): 560 nm
absorption maximum (in ClCCl): 611 nm

Compound: COc1cc(OC)c2ccc(=O)oc2c1
absorption maximum (in CC(C)O): 324 nm
absorption maximum (in CCO): 324 nm
absorption maximum (in CCOCC): 318 nm
absorption maximum (in CO): 324 nm
absorption maximum (in O): 327 nm

Compound: C(#Cc1c(C#Cc2ccccc2)c(C#Cc2ccccc2)c(C#Cc2ccccc2)c(C#Cc2ccccc2)c1C#Cc1ccccc1)c1ccccc1
absorption maximum (in ClCCl): 371 nm

Compound: COCCC1=Cc2nc1ccc1[nH]c(c3nc(ccc4[nH]c2cc4CCOC)C(CCOC)=C3)c(CN(C)C)c1CCOC
absorption maximum (in Cc1ccccc1): 643 nm

Compound: CC(C)c1cc(C(C)C)c(B2c3cc(-n4c5ccc(C(C)(C)C)cc5c5cc(C(C)(C)C)ccc54)ccc3N(c3ccccc3)c3ccc(-n4c5ccc(C(C)(C)C)cc5c5cc(C(C)(C)C)ccc54)cc32)c(C(C)C)c1
absorption maximum (in C1CCCCC1): 410.54 nm

Compound: O=S1(=O)c2ccccc2Oc2cc(N3c4ccccc4C4(c5ccccc53)c3ccccc3N(c3ccc5c(c3)Oc3ccccc3S5(=O)=O)c3ccccc34)ccc21
absorption maximum (in Cc1ccccc1): 359.89 nm

Compound: CC[C@H](C)COc1ccc(C2=C3C(C)=C(c4ccc5ccc6cccc7ccc4c5c67)C(C)=[N+]3[B-](F)(F)n3c(C)c(-c4ccc5ccc6cccc7ccc4c5c67)c(C)c32)cc1
absorption maximum (in ClCCl): 530 nm

Compound: Fc1nc(F)c(F)c(C#Cc2ccccc2C#Cc2c(F)c(F)nc(F)c2F)c1F
absorption maximum (in CC#N): 300 nm

Compound: CC1=CC(C)=[N+]2C1=Cc1c(C)cc(C)n1[B-]2(F)F
absorption maximum (in CCCCCC): 508 nm
absorption maximum (in CO): 503 nm
absorption maximum (in ClCCl): 506 nm

Compound: CN1c2ccc(C(=O)c3ccccc3)cc2Sc2cc(C(=O)c3ccccc3)ccc21
absorption maximum (in C1CCCCC1): 390 nm
absorption maximum (in C1CCOC1): 402 nm
absorption maximum (in CN(C)C=O): 407 nm
absorption maximum (in Cc1ccccc1): 405 nm
absorption maximum (in ClC(Cl)Cl): 407 nm
absorption maximum (in ClCCl): 408 nm

Compound: CCCC1=Cc2nc1ccc1[nH]c(cc1CCC)c1nc(c(NC(C)=O)cc3[nH]c2cc3CCC)C(CCC)=C1
absorption maximum (in Cc1ccccc1): 639 nm

Compound: c1ccc(-c2cc(-c3ccc(N4c5ccccc5C(c5ccccc5)(c5ccccc5)c5ccccc54)cn3)nc(-c3ccccc3)n2)cc1
absorption maximum (in Cc1ccccc1): 378.85 nm

Compound: CC(C)(C)c1ccc(C2=C(c3ccc(N4c5ccccc5C(C)(C)c5ccccc54)cc3)S(=O)(=O)c3c2sc(-c2ccc(N4c5ccccc5C(C)(C)c5ccccc54)cc2)c3-c2ccc(C(C)(C)C)cc2)cc1
absorption maximum (in C1CCOC1): 403 nm

Compound: CC(=O)OCOC(=O)CN(CC(=O)OCOC(C)=O)c1ccccc1OCCOc1cc(NC(=O)c2ccc3c(c2)C(=O)OC32c3cc(Cl)c(OC(C)=O)cc3Oc3cc(OC(C)=O)c(Cl)cc32)ccc1N(CC(=O)OCOC(C)=O)CC(=O)OCOC(C)=O
absorption maximum (in O): 506 nm

Compound: COc1ccc(/C=C/C2=[O+][B-](F)(F)OC(/C=C/c3ccc(OC)c4ccccc34)=C2c2ccccc2)c2ccccc12
absorption maximum (in CC#N): 550 nm
absorption maximum (in CC(C)=O): 549 nm
absorption maximum (in CCOC(C)=O): 542 nm
absorption maximum (in CCOCC): 540 nm
absorption maximum (in ClC(Cl)(Cl)Cl): 542 nm
absorption maximum (in ClCCl): 556 nm

Compound: CCN(CC)c1ccc2cc(/C=C(\C#N)c3nc4ccccc4s3)c(=O)oc2c1
absorption maximum (in C1COCCO1): 498 nm
absorption maximum (in CC#N): 506 nm
absorption maximum (in CCO): 511 nm
absorption maximum (in CCOC(C)=O): 504 nm
absorption maximum (in CN(C)C=O): 528 nm
absorption maximum (in CO): 512 nm
absorption maximum (in CS(C)=O): 525 nm
absorption maximum (in Cc1ccccc1): 501 nm
absorption maximum (in ClCCl): 509 nm

Compound: CC1=CC(C)=[N+]2C1=C(C)c1cccn1[B-]2(F)F
absorption maximum (in CCCCCC): 492 nm
absorption maximum (in CO): 486 nm
absorption maximum (in ClCCl): 488 nm

Compound: C1=C(c2ccc(-c3cccs3)s2)CCCC1
absorption maximum (in C1CCOC1): 341 nm
absorption maximum (in CC#N): 342 nm
absorption maximum (in CCCCCC): 341 nm
absorption maximum (in CCO): 344 nm
absorption maximum (in OCCOCCO): 345 nm
absorption maximum (in c1ccncc1): 345 nm

Compound: CC(C)[Si](C#Cc1c2nc3ccccc3nc2c(C#C[Si](C(C)C)(C(C)C)C(C)C)c2nc3ccccc3nc12)(C(C)C)C(C)C
absorption maximum (in CCCCCC): 681 nm

Compound: CC(C)(C)c1ccc(-c2c3ccccc3c3n2[B-](F)(F)[N+]2=Cc4c5ccccc5c(-c5ccc(C(C)(C)C)cc5)n4[B-](F)(F)[N+]2=C3)cc1
absorption maximum (in CC#N): 557 nm
absorption maximum (in CCCCCC): 568 nm
absorption maximum (in CN(C)C=O): 566 nm
absorption maximum (in Cc1ccccc1): 573 nm
absorption maximum (in ClCCl): 567 nm

Compound: COc1ccc(-n2cccc2)cc1
absorption maximum (in CC#N): 252 nm
absorption maximum (in CCCCCC): 252 nm

Compound: CC(C)(C)c1ccc2c(c1)c1cc(C(C)(C)C)ccc1n2-c1ccc(N(c2ccc(-c3ccc(-c4ccc(-c5ccc(-c6ccc(N(c7ccc(-n8c9ccc(C(C)(C)C)cc9c9cc(C(C)(C)C)ccc98)cc7)c7ccc(-n8c9ccc(C(C)(C)C)cc9c9cc(C(C)(C)C)ccc98)cc7)cc6)s5)c5nsnc45)s3)cc2)c2ccc(-n3c4ccc(C(C)(C)C)cc4c4cc(C(C)(C)C)ccc43)cc2)cc1
absorption maximum (in ClCCl): 528 nm

Compound: CCC1=C(C)C2=C(c3c(C)cc(C)nc3-c3cccs3)c3c(C)c(CC)c(C)n3[B-](F)(F)[N+]2=C1C
absorption maximum (in C1CCCCC1): 532 nm
absorption maximum (in C1CCOC1): 532 nm
absorption maximum (in C1COCCO1): 533 nm
absorption maximum (in CC#N): 530 nm
absorption maximum (in CCCCCC): 531 nm
absorption maximum (in CCO): 531 nm
absorption maximum (in CCOC(C)=O): 531 nm
absorption maximum (in CCOCC): 530 nm
absorption maximum (in CN(C)C=O): 532 nm
absorption maximum (in CS(C)=O): 534 nm
absorption maximum (in Cc1ccccc1): 533 nm
absorption maximum (in ClC(Cl)(Cl)Cl): 534 nm
absorption maximum (in ClC(Cl)Cl): 535 nm

Compound: c1ccc(-c2c3c(nc4ccccc24)-c2cc4c(cc2CC3)-c2nc3ccccc3c(-c3ccccc3)c2CC4)cc1
absorption maximum (in ClC(Cl)Cl): 376 nm

Continued, values first:

absorption maximum (in CC(C)O): 529 nm
absorption maximum (in CCO): 527 nm
absorption maximum (in CO): 522 nm
absorption maximum (in O): 515 nm
Compound: O=C([O-])c1ccccc1-c1c2cc(Br)c(=O)c(Br)c-2oc2c(Br)c([O-])c(Br)cc12

absorption maximum (in CO): 276 nm
Compound: N#Cc1c(-n2nnc3ccc(Cl)cc32)n([C@H]2C[C@H](O)[C@@H](CO)O2)c2ncnc(N)c12

absorption maximum (in ClCCl): 370 nm
Compound: COc1ccc(/C=C/c2cc(/C=C/c3ccc(OC)cc3)nc(/C=C/c3ccc(C(F)(F)F)cc3)n2)cc1

absorption maximum (in CC#N): 393 nm
absorption maximum (in CO): 397 nm
absorption maximum (in ClCCl): 393 nm
Compound: Cc1ccc(-c2[nH]c(=O)n3c2-c2ccccc2C3=O)c(O)c1

absorption maximum (in CS(C)=O): 360 nm
Compound: N#CC1=C(N)n2c(=O)c3ccccc3c(=O)n2C1c1ccccc1 (configuration not stated)

absorption maximum (in ClCCl): 352 nm
Compound: Cc1cccc2nc(-c3cc(=O)c(OCc4ccccc4)co3)c(NC3CCCCC3)n12

absorption maximum (in ClC(Cl)Cl): 348 nm
Compound: CC(C)(C)c1ccc2oc3nc4oc5ccc(N6c7ccccc7Sc7ccccc76)cc5c4cc3c2c1

absorption maximum (in ClCCl): 339 nm
Compound: CC(C)(C)c1ccc(-c2cnc3cccc(-c4ccccc4)n23)cc1

absorption maximum (in C1COCCO1): 534 nm
absorption maximum (in CN(C)C=O): 542 nm
absorption maximum (in CO): 536 nm
absorption maximum (in CS(C)=O): 546 nm
Compound: O=C1/C(=C2\Sc3ccc(S(=O)(=O)Nc4ccccc4)cc3C2=O)Sc2ccc(S(=O)(=O)Nc3ccccc3)cc21

absorption maximum (in CS(C)=O): 432 nm
absorption maximum (in ClC(Cl)Cl): 424 nm
Compound: CCCCCCN(c1ccccc1)c1ccc(/C=C/c2cc(=O)oc3cc(C)ccc23)cc1

absorption maximum (in ClC(Cl)Cl): 394 nm
Compound: O=C1NC(=O)c2ccc(N3CCOCC3)c3cccc1c23

absorption maximum (in CC#N): 465 nm
Compound: Cc1ccc(S(=O)(=O)Nc2c(/C=C/c3ccccc3)sc(-c3ccc(N(C)C)cc3)c2-c2ccsc2)cc1

absorption maximum (in CCO): 439 nm
Compound: CC(C)(C)OC(=O)NCC(=O)OCc1ccc2c3cccc4cccc(c5cccc1c52)c43

absorption maximum (in O): 400 nm
Compound: Fc1ccc2cc3cccc[n+]3cc2c1

absorption maximum (in CC#N): 404 nm
Compound: CCOC(=O)c1c2c3c(ccc(Br)c3c3cc4ccccc4cc13)N(C)C2=O

absorption maximum (in ClCCl): 386 nm
Compound: CN(C)c1ccc(-c2ccc(/C=C/c3ccncn3)cc2)cc1

absorption maximum (in ClCCl): 391 nm
Compound: Cc1c(C(=O)c2ccccc2)c2ccc3cccc4c5cccc6ccc1c(c65)c2c34

absorption maximum (in ClCCl): 328 nm
Compound: COC(=O)C1=C(C(=O)OC)C2(c3ccccc3-c3c(Br)cc(Br)cc32)C2(/C=C/c3ccccc3)c3cc(OC)c(OC)cc3CCN12 (configuration not stated)

absorption maximum (in C1CCOC1): 411 nm
Compound: COc1cc2c(cc1-c1ccc(C)cc1)Cc1c3c(c4c(c1-2)-c1cc(OC)c(-c2ccc(C)cc2)cc1C4)C(=O)N(CCC(C)C)C3=O

absorption maximum (in CC#N): 459 nm
Compound: CCN(CC)c1ccc2cc(/C=C/c3ccc([N+](=O)[O-])cc3)c(=O)oc2c1

absorption maximum (in ClC(Cl)Cl): 353 nm
Compound: CC(=O)OCCN1C(=O)c2cccc3c(Oc4ccc(C=O)cc4)ccc(c23)C1=O

absorption maximum (in CC#N): 410 nm
absorption maximum (in CCCCCCC): 393 nm
absorption maximum (in CO): 413 nm
absorption maximum (in O): 418 nm
Compound: O=[N+]([O-])c1ccc(/C=C/c2c[nH]c3ccccc23)cc1

absorption maximum (in ClCCl): 387 nm
Compound: O=P1(c2ccccc2)C(c2ccc(C(F)(F)F)cc2)=Cc2cc3ccccc3cc21 (configuration not stated)

absorption maximum (in ClCCl): 341 nm
Compound: O=c1oc2ccccc2cc1-c1ccc(-c2ccc(-c3cc4ccccc4oc3=O)cc2)cc1

absorption maximum (in C1CCCCC1): 380 nm
absorption maximum (in CO): 390 nm
Compound: CN(C)c1ccc(/C=C/c2nc3ccccc3o2)cc1

absorption maximum (in C1COCCO1): 394 nm
absorption maximum (in CC#N): 397 nm
absorption maximum (in CCCCOCCCC): 396 nm
absorption maximum (in CCOC(C)=O): 398 nm
Compound: COc1nc(Cl)nc(Nc2ccc3cc4ccccc4cc3c2)n1

absorption maximum (in ClCCl): 504 nm
Compound: CCCCCCOc1cc(N(CC)CC)ccc1/C=C/C(=C(C#N)C#N)c1ccc2c(c1)c1ccccc1n2CC

absorption maximum (in ClCCl): 390 nm
Compound: CCOC(=O)c1ccc(C2=Cc3cc4ccccc4cc3P2(=O)c2ccccc2)cc1 (configuration not stated)

absorption maximum (in ClC(Cl)Cl): 416 nm
Compound: CCCCCCN1C(=O)c2cccc3c(-c4sc(-c5ccc6c7c(cccc57)C(=O)N(CCCCCC)C6=O)c5c4OCCO5)ccc(c23)C1=O

absorption maximum (in ClC(Cl)Cl): 346 nm
Compound: N#Cc1c(C#N)c2ccccc2c2ccccc12

absorption maximum (in O): 396 nm
Compound: c1ccc2c[n+]3ccccc3cc2c1
